{
  "source": "patent US6995173B2",
  "about": "“Methods for the treatment of central nervous system disorders in certain patient groups” (R.T. Alamo Ventures I, LLC, priority 2001, dated 2006)",
  "target": "T1, PDE6 partially purified from bovine retinal rod and activated by trypsin (Bos taurus, UniProt P11541+P23439)",
  "T1 construct": "from tissue; host or cells: bovine retinal rod",
  "T1 sequence (P11541 2-856 limits assumed)": "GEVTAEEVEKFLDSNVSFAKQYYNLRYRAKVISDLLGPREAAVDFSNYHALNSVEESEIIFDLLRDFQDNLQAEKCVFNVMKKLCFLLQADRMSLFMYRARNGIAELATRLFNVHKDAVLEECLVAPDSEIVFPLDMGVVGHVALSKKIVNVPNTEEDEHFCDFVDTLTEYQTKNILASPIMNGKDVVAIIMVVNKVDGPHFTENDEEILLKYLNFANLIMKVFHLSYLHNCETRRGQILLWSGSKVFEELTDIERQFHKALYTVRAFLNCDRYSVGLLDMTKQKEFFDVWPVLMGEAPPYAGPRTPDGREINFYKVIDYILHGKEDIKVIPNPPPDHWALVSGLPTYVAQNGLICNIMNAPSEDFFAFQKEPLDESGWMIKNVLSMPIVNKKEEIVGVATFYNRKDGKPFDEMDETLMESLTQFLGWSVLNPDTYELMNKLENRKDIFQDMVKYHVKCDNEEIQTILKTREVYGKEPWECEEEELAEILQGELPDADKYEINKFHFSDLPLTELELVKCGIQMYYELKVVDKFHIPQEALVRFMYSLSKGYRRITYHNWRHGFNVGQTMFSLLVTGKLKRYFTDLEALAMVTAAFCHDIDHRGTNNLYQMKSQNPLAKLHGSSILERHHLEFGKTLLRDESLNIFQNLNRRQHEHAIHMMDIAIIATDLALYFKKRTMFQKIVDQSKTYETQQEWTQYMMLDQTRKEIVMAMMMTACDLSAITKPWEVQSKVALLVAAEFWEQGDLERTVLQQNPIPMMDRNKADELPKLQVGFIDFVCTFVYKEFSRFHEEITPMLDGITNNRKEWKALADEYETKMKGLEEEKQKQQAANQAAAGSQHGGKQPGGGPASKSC",
  "T1 sequence (P23439 2-850 limits assumed)": "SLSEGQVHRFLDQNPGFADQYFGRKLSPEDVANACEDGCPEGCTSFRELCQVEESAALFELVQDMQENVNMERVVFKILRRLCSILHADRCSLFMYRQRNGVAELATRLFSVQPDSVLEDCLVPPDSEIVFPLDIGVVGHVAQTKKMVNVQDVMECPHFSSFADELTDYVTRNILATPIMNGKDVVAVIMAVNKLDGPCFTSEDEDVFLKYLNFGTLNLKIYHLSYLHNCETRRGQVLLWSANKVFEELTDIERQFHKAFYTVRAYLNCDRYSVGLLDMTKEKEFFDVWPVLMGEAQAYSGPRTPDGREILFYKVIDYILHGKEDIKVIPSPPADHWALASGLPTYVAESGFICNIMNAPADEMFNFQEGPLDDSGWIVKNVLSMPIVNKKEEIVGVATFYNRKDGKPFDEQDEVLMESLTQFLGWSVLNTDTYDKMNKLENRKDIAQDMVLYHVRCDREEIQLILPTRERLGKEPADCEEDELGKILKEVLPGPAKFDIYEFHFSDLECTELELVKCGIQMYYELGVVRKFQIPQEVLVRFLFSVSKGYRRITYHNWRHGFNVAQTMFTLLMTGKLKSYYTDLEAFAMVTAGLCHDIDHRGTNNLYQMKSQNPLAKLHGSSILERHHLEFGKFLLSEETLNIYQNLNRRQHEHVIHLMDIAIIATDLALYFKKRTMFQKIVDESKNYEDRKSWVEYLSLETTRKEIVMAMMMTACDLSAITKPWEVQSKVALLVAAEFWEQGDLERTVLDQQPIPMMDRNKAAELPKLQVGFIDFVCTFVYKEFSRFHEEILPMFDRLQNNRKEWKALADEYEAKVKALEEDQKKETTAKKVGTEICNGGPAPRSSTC",
  "assay": "PDE6 biochemical enzyme assay ([3H]cGMP hydrolysis, scintillation counting)",
  "details": "Example 2; versus Viagra 0.3 μM",
  "experimental": "PDE6 partially purified from bovine retinal rod and activated by trypsin was used. […] Each reaction was terminated by raising the temperature to 100° C. for 2 minutes. The resulting GMP was converted to guanosine by addition of 10 mg/ml snake venom nucleotidase and further incubated at 30° C. for 10 minutes. Unhydrolyzed cGMP was bound to AGI-X2 resin, and [^3H]guanosine remaining in the aqueous phase was quantitated by scintillation counting.",
  "data": [
    {"smiles": "Cn1cc([S+](C)[O-])c(=O)c2ccc(F)cc21", "note": "(racemic) [Flosequinan, 7-fluoro-1-methyl-3-methylsulphinyl-4-quinolone]", "values": [
      {"measurement": "times more compound on a molar basis than Viagra for such levels of PDE6 inhibition", "value": "more than 300 times"}
    ]}
  ]
}
